Assay results: PubChem BioAssay AID2060341 (Molecular Pharmacology Branch, DTP, NCI, 2025)
Several values for one entry are separate records, joined by “and”; a condition that tells them apart may be missing. Equal entries are not always repeated.

Tested on: 327498-153-R-J2-PDC multicell spheroid viability
Assay: Anticancer human tumor 327498-153-R-J2-PDC patient-derived uterine carcinosarcoma cell line growth inhibition [IpAb]
Conditions: for viability, T/C: stronger effect = lower value; active means viability on the fitted dose curve at most 10% of control; inactive means the rest
Procedure, shortened: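 Spheroids of 60% malignant cells, 25% HUVEC and 15% MSC were exposed to targeted agents combined with ipatasertib or abemaciclib. Doses started at or near clinical Cmax (10 microM when unknown) and fell in half-log steps.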
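Further: spheroids exposed to agents for 7 days.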
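Wherever viability, T/C is given: 100% = DMSO vehicle control viability.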

C=CC(=O)N1CCN(c2nc(=O)n(-c3c(C)ccnc3C(C)C)c3nc(-c4c(O)cccc4F)c(F)cc23)C(C)C1 (stereo unspecified)
inactive: viability, T/C (compound 0.0316 µM) 73.5% and 77.4% | viability, T/C (compound 0.1 µM) 69.2% and 69.6% | viability, T/C (compound 0.316 µM) 58.3% and 67.6% | viability, T/C (compound 1 µM) 65.6% and 63.7% | viability, T/C (compound 3.16 µM) 67.2% and 65% | viability, T/C (compound 10 µM) 55.8% and 59.9%
> 10000 nM: IC50 (curve of compound)

CCCS(=O)(=O)Nc1ccc(F)c(C(=O)c2c[nH]c3ncc(-c4ccc(Cl)cc4)cc23)c1F
inactive: viability, T/C (compound 0.0316 µM) 105% and 102% | viability, T/C (compound 0.1 µM) 116% and 103% | viability, T/C (compound 0.316 µM) 106% and 101% | viability, T/C (compound 1 µM) 106% and 98.7% | viability, T/C (compound 3.16 µM) 101% and 96.1% | viability, T/C (compound 10 µM) 87.3% and 92.8%
> 10000 nM: IC50 (curve of compound)

CC(C)(C)c1cnc(CSc2cnc(NC(=O)C3CCNCC3)s2)o1
169 nM: IC50 (curve of compound)
inactive: viability, T/C (compound 0.00949 µM) 106% and 96.9% | viability, T/C (compound 0.03 µM) 108% and 105% | viability, T/C (compound 0.0949 µM) 95.8% and 93.2%
active: viability, T/C (compound 0.3 µM) 4.76% and 7% | viability, T/C (compound 0.949 µM) 0.89% and 1.1% | viability, T/C (compound 3 µM) 0.6% and 0.58%

Cn1cnc2c(F)c(Nc3ccc(Br)cc3Cl)c(C(=O)NOCCO)cc21 + CC(C)NCC(C(=O)N1CCN(c2ncnc3c2C(C)CC3O)CC1)c1ccc(Cl)cc1
inactive: viability, T/C (second compound 0.1 µM, first compound 0.00949 µM) 91.7% | viability, T/C (second compound 0.1 µM, first compound 0.03 µM) 69.9% | viability, T/C (second compound 0.1 µM, first compound 0.0949 µM) 66.2% | viability, T/C (second compound 0.1 µM, first compound 0.3 µM) 51.7% | viability, T/C (second compound 0.1 µM, first compound 0.949 µM) 46.1% | viability, T/C (second compound 0.1 µM, first compound 3 µM) 34.1% | viability, T/C (second compound 0.316 µM, first compound 0.00949 µM) 60.2% | viability, T/C (second compound 0.316 µM, first compound 0.03 µM) 51.6% | viability, T/C (second compound 0.316 µM, first compound 0.0949 µM) 48% | viability, T/C (second compound 0.316 µM, first compound 0.3 µM) 41.9% | viability, T/C (second compound 0.316 µM, first compound 0.949 µM) 29.7% | viability, T/C (second compound 0.316 µM, first compound 3 µM) 20.6% | viability, T/C (second compound 1 µM, first compound 0.00949 µM) 41.9% | viability, T/C (second compound 1 µM, first compound 0.03 µM) 34.6% | viability, T/C (second compound 1 µM, first compound 0.0949 µM) 32.9% | viability, T/C (second compound 1 µM, first compound 0.3 µM) 28.9% | viability, T/C (second compound 1 µM, first compound 0.949 µM) 20.4% | viability, T/C (second compound 1 µM, first compound 3 µM) 11.5% | viability, T/C (second compound 3.16 µM, first compound 0.00949 µM) 33.8% | viability, T/C (second compound 3.16 µM, first compound 0.03 µM) 27.2% | viability, T/C (second compound 3.16 µM, first compound 0.0949 µM) 21% | viability, T/C (second compound 3.16 µM, first compound 0.3 µM) 21% | viability, T/C (second compound 3.16 µM, first compound 0.949 µM) 13.3% | viability, T/C (second compound 10 µM, first compound 0.00949 µM) 27.1% | viability, T/C (second compound 10 µM, first compound 0.03 µM) 22.4% | viability, T/C (second compound 10 µM, first compound 0.0949 µM) 16.3% | viability, T/C (second compound 10 µM, first compound 0.3 µM) 15.7% | viability, T/C (second compound 10 µM, first compound 0.949 µM) 12.2%
active: viability, T/C (second compound 3.16 µM, first compound 3 µM) 7.22% | viability, T/C (second compound 10 µM, first compound 3 µM) 6.89%
< 9.49 nM: IC50 (curve of first compound, second compound 1 µM) | IC50 (curve of first compound, second compound 3.16 µM) | IC50 (curve of first compound, second compound 10 µM)
61.2 nM: IC50 (curve of first compound, second compound 0.316 µM)
427 nM: IC50 (curve of first compound, second compound 0.1 µM)
